Tests used:
human lyase = biological target: T1, human lyase (Homo sapiens, UniProt P05093); experiment: Inhibition of human steroid C17,20 lyase (testicular microsomes); format: biochemical
T1 construct: microsomes were isolated from human, cynomolgus monkey, dog, rat or athymic nude mouse testicular tissue; from tissue; host or cells: human testis microsomes (therapeutic orchiectomies)
T1 sequence (P05093 1-508): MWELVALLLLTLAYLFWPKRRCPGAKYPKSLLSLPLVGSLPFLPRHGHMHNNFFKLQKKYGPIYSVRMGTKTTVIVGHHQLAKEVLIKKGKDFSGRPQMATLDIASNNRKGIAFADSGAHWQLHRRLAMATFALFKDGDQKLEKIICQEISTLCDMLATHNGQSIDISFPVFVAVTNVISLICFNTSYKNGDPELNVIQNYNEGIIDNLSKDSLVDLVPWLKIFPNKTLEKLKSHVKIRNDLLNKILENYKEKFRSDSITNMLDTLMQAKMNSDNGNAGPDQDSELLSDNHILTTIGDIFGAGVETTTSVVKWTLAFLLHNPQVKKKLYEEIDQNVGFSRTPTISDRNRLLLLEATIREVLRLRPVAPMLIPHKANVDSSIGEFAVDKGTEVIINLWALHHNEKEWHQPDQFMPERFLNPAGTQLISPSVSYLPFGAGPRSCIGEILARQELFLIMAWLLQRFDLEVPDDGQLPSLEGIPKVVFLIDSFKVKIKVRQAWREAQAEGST
Method: (§1) The activity of the present compounds as inhibitors of steroid C17,20 lyase was established using microsomal preparations of the steroid C17,20 lyase enzyme from human or laboratory animal testes. Human testes used for this purpose were obtained from therapeutic orchiectomies. Specifically, microsomes were isolated from human, cynomolgus monkey, dog, rat or athymic nude mouse testicular tissue. The compound to be tested was dissolved in dimethyl sulfoxide and diluted in 0.05M potassium phosphate buffer to give the desired concentrations of the test compound. The potassium phosphate buffer was at pH 7.4 for the human, monkey and dog lyase assays and at pH 7.2 for the rat and athymic nude mouse lyase assays. Assays also contained 1 mM NADPH, 5 mM glucose-6-phosphate, 1 IU/ml glucose-6-phosphate dehydrogenase (an NADPH regenerating system) and microsomal protein in a total volume of 0.2 mL. Control assays contained all components including dimethyl sulfoxide, but with no test compound. All assays were performed in duplicate. For determination of time dependent C17,20 lyase inactivation, the test compound was incubated with 20 to 60 μg/ml microsomal protein, buffer, and the NADPH regenerating system described above at 34° C. for 0 or 40 minutes. Aliquots (180 μl) were then removed and assayed for enzyme activity by addition to tritiated steroid substrate plus unlabeled steroid substrate to give a 200 μl total assay volume, and were subsequently incubated at 34° C. for 6 minutes. For determination of reversible inhibition by the test compound, the reaction was initiated by addition of substrate. The radiolabeled substrate used for human, cynomolgus monkey and dog lyase was [7-^3 H]-17α-hydroxypregnenolone, 11.2 Ci/mmole, 0.2 μCi total activity per assay. Unlabeled 17α-hydroxypregnenolone was added to give a total concentration of 1.0 μM or 0.3 μM for the human and monkey enzymes, and 0.08 μM for the canine enzyme. […] The radiolabeled substrate used for the rodent enzymes were [1,2-^3 H]-17α-hydroxyprogesterone (40-57 Ci/mmol; 0.2 μCi per assay). Unlabeled 17α-hydroxyprogesterone was added to give a total concentration of 0.1 μM for the rat enzyme (Km =0.1 μM) and 0.03 μM (Km =0.03 μM) for the athymic nude mouse enzyme. The total assay volume was 200 μl. The complete assay was incubated at 34° C. for 6 minutes. Each reaction was stopped by the addition of 5 ml of chloroform:methanol (2:1). Carrier steroids representing substrate and products and 0.8 ml of water were also added at this time. The carrier steroids for the human, monkey and dog lyase assays were 17α-hydroxypregnenolone, dehydroepiandrosterone and androstenediol. Carrier steroids for the rodent lyase assays were 17α-hydroxyprogesterone, androstenedione, and testosterone. The steroids were extracted by the method of Moore and Wilson (Methods in Enzymol., eds. O'Malley, B. W. and Hardman, J. G. 36, 1975, p. 466-474), the organic phase containing the steroids was evaporated using nitrogen gas, the residues dissolved in 18% tetrahydrofuran (v/v) in hexane, and the steroids were separated by HPLC on a Si60 (5 um) column (250×4 mm) using a gradient of 18-22% tetrahydrofuran (v/v) in hexane. Radioactivity in the steroid peaks was measured by a Radiomatic Model HS Flo-One detector.
The enzyme activity for each incubate was calculated from the percent conversion of substrate to products, and the results were expressed as percent inhibition of control. […] The Ki and kinact for time dependent inhibitors were determined by graphical analysis of Kitz-Wilson plots. When the compounds of the present invention were tested in the above procedure using human lyase, the following results were observed: […]

[1] = biological target: T2, cynomolgus monkey C17,20 lyase (Macaca fascicularis, UniProt Q2XVA1); experiment: Inhibition of cynomolgus monkey steroid C17,20 lyase (testicular microsomes), time dependent, Kitz-Wilson; format: biochemical
T2 construct: microsomes were isolated from human, cynomolgus monkey, dog, rat or athymic nude mouse testicular tissue; from tissue; host or cells: cynomolgus monkey testis microsomes
T2 sequence (Q2XVA1 1-508): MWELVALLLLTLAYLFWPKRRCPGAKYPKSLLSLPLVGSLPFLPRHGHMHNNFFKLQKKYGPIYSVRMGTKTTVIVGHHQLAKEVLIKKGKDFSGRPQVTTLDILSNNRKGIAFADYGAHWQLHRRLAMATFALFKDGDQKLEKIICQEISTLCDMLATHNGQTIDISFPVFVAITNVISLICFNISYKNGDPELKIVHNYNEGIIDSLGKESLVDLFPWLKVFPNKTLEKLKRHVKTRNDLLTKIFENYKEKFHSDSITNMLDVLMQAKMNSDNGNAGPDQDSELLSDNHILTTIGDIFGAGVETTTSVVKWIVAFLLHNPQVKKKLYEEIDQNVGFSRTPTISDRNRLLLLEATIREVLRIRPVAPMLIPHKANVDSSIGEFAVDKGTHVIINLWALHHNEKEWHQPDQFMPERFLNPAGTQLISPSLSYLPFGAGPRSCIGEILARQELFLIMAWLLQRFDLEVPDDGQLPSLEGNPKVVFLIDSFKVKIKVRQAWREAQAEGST
Method: as §1, with “Carrier steroids representing substrate and products and 0.8 ml of water were also added at this time. The carrier steroids for the human, monkey and dog lyase assays were 17α-hydroxypregnenolone, dehydroepiandrosterone and androstenediol. Carrier steroids for the rodent lyase assays were 17α-hydroxyprogesterone, androstenedione, and testosterone. The steroids were extracted by the method of Moore and Wilson (Methods in Enzymol., eds. O'Malley, B. W. and Hardman, J. G. 36, 1975, p. 466-474), the organic phase containing the steroids was evaporated using nitrogen gas, the residues dissolved in 18% tetrahydrofuran (v/v) in hexane, and the steroids were separated by HPLC on a Si60 (5 um) column (250×4 mm) using a gradient of 18-22% tetrahydrofuran (v/v) in hexane.” left out
The enzyme activity for each incubate was calculated from the percent conversion of substrate to products, and the results were expressed as percent inhibition of control. […] The Ki and kinact for time dependent inhibitors were determined by graphical analysis of Kitz-Wilson plots. […]

Structure (SMILES)	inhibition at 1 µM (human lyase; preincubation 0 min) [%]	inhibition at 1 µM (human lyase; preincubation 40 min) [%]	inhibition at 10 µM (human lyase; preincubation 0 min) [%]	inhibition at 10 µM (human lyase; preincubation 40 min) [%]	Ki [1] [nM]	kinact [1] [s⁻¹]
C[C@]12CC[C@H]3[C@@H](CCC4=C(N)C(=O)CC[C@@]43C)[C@@H]1CC[C@@H]2OC1CC1 [Compound 2, 4-Amino-17β-(cyclopropyloxy)androst-4-en-3-one]	79	86	96	99	286	0.0007
C[C@]12CC[C@H]3[C@@H](C=CC4=C(N)C(=O)CC[C@@]43C)[C@@H]1CC[C@@H]2OC1CC1 [Compound 1, 4-Amino-17β-(cyclopropyloxy)androsta-4,6-dien-3-one]	69	84	95	98	339	0.0009
